Tests used:
Assay type in all cases: in vivo
[1] = system: Orchardgrass; test: Selective postemergence, track sprayer
Experimental: (§1) Representative compositions of the present invention were evaluated for the postemergence control of species of plants listed in Table A. In these evaluations, pots of the plant species listed in Table A, grown to a height of about 10 cms, were used. Aqueous spray compositions, containing various amounts of 2-[4-(2-fluoro-4-trifluoromethylphenoxy)-phenoxy]propionic acid methy ester, i.e., 125 ppm, 62.5 ppm, 31.25 ppm, 15.6 ppm, 7.8 ppm and 3.9 ppm, respectively, were applied to separate pots. The spray compositions were made by mixing the active ingredient in acetone to 1/2 the final volume, i.e., twice the final concentration. An equal amount of water was added to the active ingredient/acetone mixture wherein the water contained 0.1 percent by weight of TWEEN® 200 surfactant. The application to the plants was made to the point of run-off and was carried out with conventional spraying equipment. Other pots were sprayed with similar compositions containing no toxicant to serve as controls. Thereafter, the pots were maintained under conditions conducive for plant growth. Two weeks after treatment, the pots were examined for plant growth and evaluated on a scale of 0 to 100 where 0 represents no effect and 100 represents complete kill. The results of the examination of the treated pots are set forth below in Table A.
(§2) To further define the selective postemergence herbicidal characteristics of compounds of the present invention, chemicals were applied to additional species of grasses as listed in Table F. Chemicals evaluated were 2-[4-(4-bromo-2-fluorophenoxy)phenoxy]propionic acid methyl ester and its R isomer. Treatment conditions were similar to those described in Example A except that chemicals were delivered through a track sprayer set to deliver the appropriate dosages in 280.6 L/hectare of water containing 0.1% Tween-20 surfactant.

[2] = system: Cheatgrass; test: Selective postemergence, track sprayer
Experimental: as §1, §2

[3] = system: Sprangletop; test: Selective postemergence, track sprayer
Experimental: as §1, §2

[4] = system: Broadleaf Signalgrass; test: Selective postemergence, track sprayer
Experimental: as §1, §2

[5] = system: Blackgrass; test: Postemergent activity
Procedure, shortened: (§3)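 Postemergence test on potted plants about 10 cm tall. Active ingredient in acetone diluted with an equal volume of water containing 0.1 wt% TWEEN 200, sprayed to run-off. Plants then kept under growth-conducive conditions.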

[6] = system: Green Foxtail; test: Postemergent activity
Procedure, shortened: as §3

[7] = system: Barley; test: Postemergent activity
Procedure, shortened: as §3

[8] = system: Yellow Foxtail; test: Postemergent activity
Procedure, shortened: as §3

[9] = system: Cheatgrass; test: Postemergent activity
Procedure, shortened: as §3

[10] = system: Wheat; test: Postemergent activity; details: Triticum aestivum, post-emergence, 336 h, read-out: % Control
Procedure, shortened: (§4)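 Pots of plants about 10 cm tall sprayed to run-off at 125, 62.5, 31.25, 15.6, 7.8 and 3.9 ppm. Spray: active in acetone mixed with an equal volume of water containing 0.1% TWEEN 200. Growth scored two weeks later on a 0–100 scale (0 no effect, 100 complete kill).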

[11] = system: Wild Oats; test: Postemergent activity; details: Avena fatua, post-emergence, 336 h
Procedure, shortened: as §4

For COC(=O)C(C)Oc1ccc(Oc2ccc(Br)cc2F)cc1 (racemic) [Example 4-Bromo-, 2-[4-(4-bromo-2-fluorophenoxy)phenoxy]propionic acid methyl ester], the “Percent Control” value ([1]; 0.0011 kgs/hectare) was 0%, the “Percent Control” value ([1]; 0.0023 kgs/hectare) was 0% and the “Percent Control” value ([1]; 0.0045 kgs/hectare) was 0%. For the same compound, the “Percent Control” value ([1]; 0.009 kgs/hectare) was 0%, the “Percent Control” value ([1]; 0.035 kgs/hectare) was 0% and the “Percent Control” value ([1]; 0.07 kgs/hectare) was 80%. For the same compound, the “Percent Control” value ([1]; 0.14 kgs/hectare) was 90%, the “Percent Control” value ([1]; 0.28 kgs/hectare) was 90% and the “Percent Control” value ([1]; 0.56 kgs/hectare) was 90%. The “Percent Control” value ([2]; 0.0011 kgs/hectare) was 0%, the “Percent Control” value ([2]; 0.0023 kgs/hectare) was 0% and the “Percent Control” value ([2]; 0.0045 kgs/hectare) was 0%. For the same compound, the “Percent Control” value ([2]; 0.009 kgs/hectare) was 0%, the “Percent Control” value ([2]; 0.018 kgs/hectare) was 0% and the “Percent Control” value ([2]; 0.035 kgs/hectare) was 0%. The “Percent Control” value ([2]; 0.07 kgs/hectare) was 0%, the “Percent Control” value ([2]; 0.14 kgs/hectare) was 0% and the “Percent Control” value ([2]; 0.28 kgs/hectare) was 0%. The “Percent Control” value ([2]; 0.56 kgs/hectare) was 20%, the “Percent Control” value ([3]; 0.0011 kgs/hectare) was 0% and the “Percent Control” value ([3]; 0.0023 kgs/hectare) was 20%. For the same compound, the “Percent Control” value ([3]; 0.0045 kgs/hectare) was 95%, the “Percent Control” value ([3]; 0.009 kgs/hectare) was 100% and the “Percent Control” value ([3]; 0.035 kgs/hectare) was 100%. The “Percent Control” value ([3]; 0.14 kgs/hectare) was 100%, the “Percent Control” value ([3]; 0.28 kgs/hectare) was 100% and the “Percent Control” value ([3]; 0.56 kgs/hectare) was 100%. For the same compound, the “Percent Control” value ([4]; 0.0011 kgs/hectare) was 70%, the “Percent Control” value ([4]; 0.0023 kgs/hectare) was 90% and the “Percent Control” value ([4]; 0.0045 kgs/hectare) was 80%. For the same compound, the “Percent Control” value ([4]; 0.009 kgs/hectare) was 100%, the “Percent Control” value ([4]; 0.035 kgs/hectare) was 100% and the “Percent Control” value ([4]; 0.07 kgs/hectare) was 100%. The “Percent Control” value ([4]; 0.14 kgs/hectare) was 100%, the “Percent Control” value ([4]; 0.28 kgs/hectare) was 100% and the “Percent Control” value ([4]; 0.56 kgs/hectare) was 100%. For the same compound, the “% Control” value ([5]; 0.2 ppm) was 0%, the “% Control” value ([5]; 0.4 ppm) was 10% and the “% Control” value ([5]; 0.8 ppm) was 30%. For the same compound, the “% Control” value ([5]; 1.5 ppm) was 50%, the “% Control” value ([5]; 3.1 ppm) was 70% and the “% Control” value ([5]; 6.25 ppm) was 99%. The “% Control” value ([5]; 12.5 ppm) was 100%, the “% Control” value ([5]; 25 ppm) was 100% and the “% Control” value ([6]; 0.2 ppm) was 20%. For the same compound, the “% Control” value ([6]; 0.4 ppm) was 90%, the “% Control” value ([6]; 0.8 ppm) was 90% and the “% Control” value ([6]; 1.5 ppm) was 100%. For the same compound, the “% Control” value ([6]; 3.1 ppm) was 100%, the “% Control” value ([6]; 6.25 ppm) was 100% and the “% Control” value ([6]; 12.5 ppm) was 100%. For the same compound, the “% Control” value ([6]; 25 ppm) was 100%, the “% Control” value ([7]; 3.9 ppm) was 0% and the “% Control” value ([7]; 7.8 ppm) was 0%. For the same compound, the “% Control” value ([7]; 15.6 ppm) was 0%, the “% Control” value ([7]; 31.25 ppm) was 0% and the “% Control” value ([7]; 62.5 ppm) was 10%. The “% Control” value ([7]; 125 ppm) was 10%, the “% Control” value ([7]; 250 ppm) was 10% and the “% Control” value ([7]; 500 ppm) was 30%. For the same compound, the “% Control” value ([8]; 0.2 ppm) was 0%, the “% Control” value ([8]; 0.4 ppm) was 0% and the “% Control” value ([8]; 0.8 ppm) was 20%. The “% Control” value ([8]; 1.5 ppm) was 50%, the “% Control” value ([8]; 3.1 ppm) was 80% and the “% Control” value ([8]; 6.25 ppm) was 100%. The “% Control” value ([8]; 12.5 ppm) was 100%, the “% Control” value ([8]; 25 ppm) was 100% and the “% Control” value ([9]; 0.2 ppm) was 0%. The “% Control” value ([9]; 0.4 ppm) was 0%, the “% Control” value ([9]; 0.8 ppm) was 0% and the “% Control” value ([9]; 1.5 ppm) was 0%. For the same compound, the “% Control” value ([9]; 3.1 ppm) was 0%, the “% Control” value ([9]; 6.25 ppm) was 0% and the “% Control” value ([9]; 12.5 ppm) was 0%. For the same compound, the “% Control” value ([9]; 25 ppm) was 0%, the plant injury at 3.9 ppm ([10]; 3.9 ppm) was 0% and the plant injury at 7.8 ppm ([10]; 7.8 ppm) was 0%. It also gave a plant injury at 15.6 ppm ([10]; 15.6 ppm) of 0%, a plant injury at 31.25 ppm ([10]; 31.25 ppm) of 0% and a plant injury at 62.5 ppm ([10]; 62.5 ppm) of 0%. For the same compound, the plant injury at 125 ppm ([10]; 125 ppm) was 0%, the plant injury at 250 ppm ([10]; 250 ppm) was 0% and the plant injury at 500 ppm ([10]; 500 ppm) was 0%. For the same compound, the pest or weed control at 3.9 ppm ([11]; 3.9 ppm) was 70%, the pest or weed control at 7.8 ppm ([11]; 7.8 ppm, read-out: % Control) was 80% and the pest or weed control at 15.6 ppm ([11]; 15.6 ppm, read-out: % Control) was 100%. For the same compound, the pest or weed control at 31.25 ppm ([11]; 31.25 ppm, read-out: % Control) was 100%, the pest or weed control at 62.5 ppm ([11]; 62.5 ppm, read-out: % Control) was 100% and the pest or weed control at 125 ppm ([11]; 125 ppm, read-out: % Control) was 95%. For the same compound, the pest or weed control at 250 ppm ([11]; 250 ppm, read-out: % Control) was 100% and the pest or weed control at 500 ppm ([11]; 500 ppm, read-out: % Control) was 100%.
